Usually AC50 stands for the concentration giving half of the maximal activity seen.

Inconclusive results are not listed.

In the assay the test system is Clone20 osteoblast Shn3 3'UTR firefly luciferase, 24 h. In words: Schnurri-3 3'UTR-luciferase signal suppressors – cell-based, Clone20 osteoblasts, luminescence, dry powder, set 2, dose response (AID 743417).
With `O=C(Nc1ccc([N+](=O)[O-])cc1)Nc1ccc(OC(F)F)c(Cl)c1`, the AC50 is 3590 nM. For `COc1cc(C#Cc2c(-c3cncn3C)n(C)c3ccc(-c4ccc(OC)nc4)cc23)cc(OC)c1` the value was 20500 nM; for `CC(C)(C)c1ccc(CN2C3=NCCCN3c3ccccc32)cc1`, 836 nM.

`Cc1ccc(OC(=O)CCC(=O)Oc2ccc(C)cc2C)c(C)c1`: the AC50 was 3510 nM. For `Nc1nonc1C(=O)NCCNCc1cc(Br)ccc1OCc1ccccc1F` the value was 2500 nM.

As to `Cc1ccc(-n2nnnc2C(Cl)(Cl)c2nnnn2-c2ccc(C)cc2)cc1`, the AC50 was 4710 nM. With `Cc1ccc(C(c2cc(Cl)c3cccnc3c2O)N2CCN(C)CC2)cc1` (centres undefined), the AC50 is 5540 nM. For `CC(=O)NC(c1ccc2ccccc2c1)c1ccc2cccnc2c1O` (centres undefined) the value was 422 nM. For `CCOc1ccc(C(=O)C(CCC(CN(C)C)C(=O)c2ccc(OCC)cc2)CN(C)C)cc1` (centres undefined) the value was 1610 nM; for `Cn1nccc1C(=O)NC1CCCc2c1cnn2-c1ccccc1F` (centres undefined), 370 nM; for `CCOC(=O)c1oc2ccc(S(=O)(=O)n3nc(-c4ccc(OC)cc4)cc3N)cc2c1C`, 1990 nM. Turning to `O=C(Cc1ccc(Cl)cc1Cl)Nc1ccncc1Cl`, the AC50 was 1630 nM. For `Cc1ccn2cc(-c3ccc(O)c(O)c3)nc2c1` the value was 2440 nM; for `C=CCC[C@H](Cc1ccc(F)cc1)C(=O)OC[C@H](Cc1c[nH]c2ccccc12)NC(=O)[C@H](CC=C)CC(=O)N(CCO)Cc1ccccc1`, 11700 nM; for `COc1ccc(CN(C)c2ccc(S(=O)(=O)N3CCN(C)CC3)cc2[N+](=O)[O-])cc1OC`, 691 nM. For `Cc1ccc(NC(=O)c2cc3ccccc3oc2=O)cc1S(=O)(=O)N(C)C` the value was 1290 nM; for `CC(C)C[C@@H](CO)N(Cc1ccccc1)S(=O)(=O)N(Cc1ccccc1)[C@H](CO)CC(C)C`, 10100 nM; for `COc1ccc(CN2CCC(N(CCc3ccccc3)Cc3ccccc3)CC2)c(OC)c1`, 8100 nM.

`CCCCOCCCNc1ncnc2c1[nH]c1ccccc12`: the AC50 was 1050 nM. As for `CCCOC(=O)c1ccc(OCC(O)Cn2c(C)nc3ccccc32)cc1` (centres undefined), the AC50 is 620 nM. To `CCC(=O)c1ccc(OCC(O)Cn2c(C)nc3ccccc32)cc1` (centres undefined) belongs 2280 nM; to `Cc1csc(NC(=O)Cc2nn(C)c(=O)c3ccccc23)n1`, 6820 nM. To `CN1CCN(S(=O)(=O)c2ccc(N(C)Cc3ccc(C(F)(F)F)cc3)c([N+](=O)[O-])c2)CC1` belongs 6300 nM; to `Cc1ccc(NC(=O)c2nc(S(=O)(=O)Cc3ccccc3C)ncc2Cl)cc1C`, 486 nM; to `O=C(Cn1cc(C(=O)C2CC2)c2ccccc21)Nc1ccccc1Cl`, 3420 nM. For `CCCOc1ccc(C(=O)NNC(=S)NC(=O)CC)cc1` the value was 24400 nM; for `O=C1NC2C(=CC(O)C(O)C2O)c2cc3c(cc21)OCO3` (centres undefined), 2220 nM; for `CCn1c(=O)c(C(=O)Nc2nc3ccccc3[nH]2)c(O)c2ccccc21`, 6010 nM.

As to `CC(=O)Oc1ccc(OC(C)=O)c(SCCCCCCl)c1`, the AC50 was 2580 nM. Regarding `COc1cc(OC)c(OC)cc1CCC(C)NCCC(c1ccccc1)c1ccccc1` (centres undefined), the AC50 is 3990 nM.

With `CC(=O)Nc1ccc(OCC(=O)Nc2ccc(Cl)c(S(=O)(=O)N3CCOCC3)c2)cc1`, the AC50 is 1590 nM.

With `Cc1nc2ccccc2c2oc(C(=O)N3CCN(C4CCCCC4)CC3)cc12`, the AC50 was 7020 nM. To `COc1ccc(NC(=O)Cn2nnc(-c3ccccc3NS(=O)(=O)c3ccccc3)n2)cc1` belongs 485 nM; to `COC(=O)c1ccc(N2CCN(S(=O)(=O)c3ccc(C)cc3)CC2)c([N+](=O)[O-])c1`, 3880 nM. To `CCOC(=O)Cn1c(=O)c(-c2cc(Br)ccc2N)nc2ccccc21` belongs 758 nM.

As for `O=C1c2c(O)ccc(O)c2C(=O)c2c(NCCNCCO)ccc(NCCNCCO)c21`, the half-maximal activity concentration (AC50) was 658 nM.

On to `COc1ccccc1C(NC(C)=O)c1cc(Cl)c2cccnc2c1O` (centres undefined), for which the AC50 is 2560 nM. For `COc1cc(/C=C/C(=O)c2ccc3c(c2)OCCO3)cc(Br)c1OCC(=O)N(C)C` the value was 2630 nM. For `COc1cc(NS(=O)(=O)c2ccc(C)cc2C)cc(OC)c1OC` the value was 4950 nM. On to `CC(=O)Nc1ccc(NC(=O)c2nc(S(=O)(=O)Cc3cccc(C)c3)ncc2Cl)cc1`, for which the AC50 is 528 nM. Regarding `COC(=O)C[C@]1(C(=O)OC)CN(C#N)N(c2ccc(Cl)cc2)C12c1ccccc1-c1ccccc12`, the AC50 is 1880 nM. To `CC(C)=CCC/C(C)=C/CNC(=O)C[C@H]1C[C@H](C(=O)N2CCOCC2)[C@@]2(C)c3[nH]c4cc(CCC(=O)N(C)C)ccc4c3CCN2C1=O` belongs 1110 nM; to `C[C@H]1CN=C(N(C)C)N1CC1CCC(C(C)(C)C)CC1` (some centres undefined), 2270 nM; to `Cc1cccc(N2CCN(C(=S)Nc3ccc4nc(N5CCN(C)CC5)cc(C)c4c3)CC2)c1C`, 5450 nM. As to `Cc1ccc(CNC(=O)CSc2c3c(nc4ccc(Cl)cc24)CCCC3)o1`, the AC50 was 5980 nM.

On to `Cc1c(C(=O)N(Cc2cccc(Br)c2)C2CCS(=O)(=O)C2)oc2ccccc12` (centres undefined), for which the AC50 is 35900 nM. For `CCN(CC)c1ccc(NC(=O)CN2C(=O)CSc3ncccc32)c(C)c1` the value was 1780 nM; for `CCOc1ccc2nc(SC3CC(=O)N(c4ccc(C)cc4)C3=O)sc2c1` (centres undefined), 15600 nM; for `C[C@]12CC[C@H](O)CC1=CCC1C2CC[C@@]2(C)C1CCC21OCCO1` (some centres undefined), 27300 nM. To `Cc1ccc(S(=O)(=O)Nc2ccc3ncccc3c2)cc1` belongs 2200 nM. For `CCc1ccc(NC(=O)c2nc(S(=O)(=O)Cc3ccccc3)ncc2Cl)cc1` the value was 551 nM; for `Cn1nc(-c2ccc(Cl)cc2)c2cc(C(=O)N3CCN(c4ccccn4)CC3)sc21`, 4020 nM. `Cc1cccc(CSc2cccc3cccnc23)c1`: the half-maximal activity concentration (AC50) was 2540 nM. To `Cc1ccc(NC(=O)CSc2ccc3c(c2)OCCO3)c(O)c1` belongs 343 nM. As to `O=C(c1ccccc1)c1ccccc1N1C(=O)C=CC1=O`, the AC50 was 16700 nM. Regarding `COc1ccc(C(CCNCc2ccc(OC(C)C)cc2)c2ccccc2OC)cc1` (centres undefined), the AC50 was 6440 nM.

As to `Nc1nnc(SCC(=O)Nc2ccc(N3CCOCC3)cc2)s1`, the half-maximal activity concentration (AC50) is 16800 nM. For `Cc1cccc(C(C)(C)C)c1OCCN1CCCC1` the value was 34200 nM; for `NC(CCc1ccccc1)c1csc(NC(=O)Nc2ccccc2Oc2ccccc2)n1` (centres undefined), 7180 nM; for `O=C(c1cc(COc2cccc3cnccc23)on1)N1CCCC(CCCO)C1` (centres undefined), 519 nM. For `Cc1ccc(S(=O)(=O)NCc2ccc(C(=O)N3CCN(c4ccc([N+](=O)[O-])cc4)CC3)cc2)cc1` the value was 3790 nM; for `COCCC1CCCCN1C(=O)c1cc(COc2ccc(-n3cncn3)cc2)on1` (centres undefined), 570 nM. For `CC(=O)c1cn(CCOc2cc(C)ccc2C)c2ccccc12` the value was 1180 nM; for `CC(C)CCOc1cccc(OCC(=O)Nc2ccncc2)c1`, 571 nM; for `c1ccc(-c2noc(-c3ccc4ccccc4c3)n2)nc1`, 1980 nM. Take `COc1ccc(CC(=O)Nc2cccc(S(=O)(=O)N3CCCCCC3)c2)cc1OC`: the AC50 is 2270 nM.

Turning to `COc1ccc2c(c1)c(CC(=O)Nc1cc(C)ccc1C)c(C)n2C(=O)c1ccc(Cl)cc1`, the half-maximal activity concentration (AC50) was 5690 nM. For `CCCOc1ccccc1N/C(=N/c1nc(C)cc(C)n1)NC(=O)COc1ccc(OC)cc1` the value was 3240 nM. For `CC(C)C(=O)N1CCN(c2ccc(NC(=O)c3ccc([N+](=O)[O-])o3)cc2Cl)CC1` the value was 954 nM. Turning to `CN1CCN(S(=O)(=O)c2ccc(Sc3nnnn3-c3ccccc3)c([N+](=O)[O-])c2)CC1`, the AC50 is 3900 nM. Take `COc1cccc(C2CC(c3ccc(C)cc3)=NN2C(=O)c2ccccc2F)c1OC` (centres undefined): the AC50 is 36000 nM. For the compound `FC(F)(F)c1nnc(-c2ccccc2)nc1Sc1ccc(Cl)cc1`, the AC50 was 14700 nM. To `Nc1nc(N)c2cc(CNc3ccc(Cl)c(Cl)c3)ccc2n1` belongs 956 nM; to `CC(C)c1ccc(NC(=O)Nc2nc(C(N)COCc3ccccc3)cs2)cc1` (centres undefined), 5990 nM.

On to `Cc1ccc(Cl)cc1N1CCN(C(=O)C2CCC(=O)N(C3CCCCCC3)C2)CC1` (centres undefined), for which the AC50 is 3140 nM. For the compound `Cc1ccc(S(=O)(=O)N2CCc3ccccc3CC2)cc1`, the AC50 is 3290 nM. To `C=CCSc1nc2ccccc2n1C(=O)/C=C/c1ccc(OC)c(OC)c1` belongs 1310 nM; to `Nc1cc(Cl)c2nonc2c1[N+](=O)[O-]`, 5370 nM.

In the case of `CCC(C)[C@H]1CNC(=S)N1CCc1cc(C(F)(F)F)cc(C(F)(F)F)c1` (some centres undefined), the AC50 is 21600 nM. For `COc1ccc(-c2noc(CCC(=O)NCCCN3CCC(Cc4ccccc4)CC3)n2)cc1` the value was 4030 nM. Consider `COc1cnc(-c2ccccn2)nc1NC(C)C`, for which the AC50 is 2810 nM. For `CCOC(=O)N1CCC(NC(=O)C2CCCN(Cc3nc(-c4cccc(C)c4)oc3C)C2)CC1` (centres undefined) the value was 3060 nM; for `Cc1cc(C)c2nc(NNC(=O)c3ccc(S(=O)(=O)N4CCc5ccccc5C4)cc3)sc2c1`, 1980 nM; for `CC(=O)N1CCN(c2ccc(NC(=O)c3ccc([N+](=O)[O-])o3)cc2Cl)CC1`, 1080 nM. Regarding `Cc1ccc(Cn2c(=N)n(CC(O)COc3ccccc3)c3ccccc32)cc1` (centres undefined), the AC50 was 2460 nM. For `CC(C)(C)NC(=O)CSc1nc2ccc(NC(=O)CSc3nnnn3Cc3ccccc3)cc2s1` the value was 3260 nM. For `Oc1ccc(-c2nc(-c3ccc(O)c(O)c3)cs2)cc1` the value was 5070 nM; for `C=C1C(=O)[C@]23C[C@H]1CC[C@H]2[C@]1(C)[C@@H](OC(C)=O)CC[C@@](C)(C(=O)OC)[C@H]1C[C@@H]3OC(C)=O`, 5990 nM. To `COc1ccc(-n2ncc3c(N4CCCCC4)ncnc32)cc1` belongs 2870 nM. Take `CC(C)CC(=O)NC(=S)Nc1ccc(N2CCN(C(=O)c3cccs3)CC2)cc1`: the AC50 was 2540 nM. For `Cc1ccc(CS(=O)(=O)c2ncc(Cl)c(C(=O)Nc3nnc(C(C)C)s3)n2)cc1` the value was 1520 nM. In the case of `O=C(c1cccc(S(=O)(=O)N2CCN(c3ccc(F)cc3)CC2)c1)N1CCCC(C(F)(F)F)C1` (centres undefined), the AC50 is 942 nM. To `COc1ccc(CCNc2c(C)c(C)nc3ncnn23)cc1` belongs 565 nM; to `O=C(Nc1cccc(S(=O)(=O)Nc2ccc(Cl)cc2)c1)c1ccc(Cl)nc1`, 606 nM.

These data come from PubChem BioAssay AID743417 (Broad Institute, 2014).
